Experimental data reported in PMC5295395, “Inhibition of PlexA1-mediated brain tumor growth and tumor-associated angiogenesis using a transmembrane domain targeting peptide” (Oncotarget, 2016).

What was measured:
PlexA1-NRP1 interactions = assay: proximity ligation assay on U118MG tumor sections; format: in vivo, human cells in mouse; conditions: proximity ligation assay on tumor tissue, treated mice; p = 0.0051, Mann Whitney
Protocol: (§1) To address the biological consequences of MTP-PlexA1-mediated inhibition of PlexA1 we used the U118MG-Luc glioma cell line genetically engineered to express the luciferase reporter gene. […] Cells were then grafted subcutaneously and tumor growth was monitored every 5 days for a total period of 20 days. […] The quantitative analysis of the cumulated luminescent signal acquired all along the protocol confirmed the strong reduction of tumor development translating into a marked 75% reduction of the averaged luminescent signal at the end point (Figure 6C). […] In order to clarify the mechanism by which MTP-PlexA1 is exerting tumor growth inhibition we collected tumors and analyzed them histologically.
(§2) (B) Representative photographs illustrating the kinetic of tumor growth over 20 days in the two experimental groups. […] (D) Waterfall plot of best response representing the percent change in tumor volume of individual treated animals (grey bars, n = 10) compared to the average tumor volume increased determined in the control group (dark bars, n = 10). […] (F) Representative microphotographs and related quantification of PH3 positive cells in tumor slices (G) Representative microphotographs and related quantification of CD31 positive regions in tumor slices (% CD31 per μm² of tumors).

[1] = tested on: U118MG-Luc glioma tumors in nude mice; assay: heterotopic (subcutaneous) U118MG-Luc xenograft, tumor growth; format: in vivo, human cells in mouse
Protocol: To address the biological consequences of MTP-PlexA1-mediated inhibition of PlexA1 we used the U118MG-Luc glioma cell line genetically engineered to express the luciferase reporter gene. […] Cells were then grafted subcutaneously and tumor growth was monitored every 5 days for a total period of 20 days. […] The quantitative analysis of the cumulated luminescent signal acquired all along the protocol confirmed the strong reduction of tumor development translating into a marked 75% reduction of the averaged luminescent signal at the end point (Figure 6C). […] However, responses were strong for 8 out of 10 mice with some responses close to 100%, all of them being at least Partial Response (PR) (Figure 6D). In order to clarify the mechanism by which MTP-PlexA1 is exerting tumor growth inhibition we collected tumors and analyzed them histologically.
(B) Representative photographs illustrating the kinetic of tumor growth over 20 days in the two experimental groups. (C) Cumulated growth curves of the tumors (UA: Arbitrary Unit). (D) Waterfall plot of best response representing the percent change in tumor volume of individual treated animals (grey bars, n = 10) compared to the average tumor volume increased determined in the control group (dark bars, n = 10). (E) Proximity ligation assay on tumor slices showing that MTP-PlexA1 (10^−7 M) decreases the number of PlexA1-NRP1 interactions in U118MG cells. (F) Representative microphotographs and related quantification of PH3 positive cells in tumor slices (G) Representative microphotographs and related quantification of CD31 positive regions in tumor slices (% CD31 per μm² of tumors).
Experiments were performed according to the Guide for Care and Use of Laboratory Animals (E67-6-482-21) and the European Directive with approval of the regional ethical committee (Reference AL/55/62/02/13). Heterotopic grafts were produced by injecting […] in the flank of pathogen-free NMRI nude mice (Janvier, Le Genest Saint Isle, France). Intraperitoneal administration of vehicle (LDS 72 μM) or MTP-PlexA1 treatment (10–7 M) were done every days during 20 days when the tumors reached a minimal volume of 100 mm3. For the experiment conducted with cancer stem cell line NCH644mCherry, we performed bilateral grafting of 10^6 cells on each flank of 20 nude mice without treatment or pre-incubated for 1 hour with MTP-PlexA1 at 10–7 M. After 5 days, the fluorescence emission of developing tumors was recorded using the NightOwl system (Berthold) using appropriate excitation and emission filters (580 nm/620 nm respectively).

NCH644 cells = assay: sphere forming assay, NCH644 glioma stem cells; format: cell-based, human; conditions: NCH644, 10^−9 M
Protocol: Mounting evidence supports a crucial role of cancer stem cells in the initiation or relapse of tumors. This is particularly the case for gliomas. Thus, we decided to evaluate to what extent MTP-PlexA1 would affect glioma stem cell (GSC) growth. To this end, we used the NCH644 human cell line derived from a patient biopsy. […] We next performed a sphere forming assay in which cells were plated into 96-well plates at a low density (30 cells per well) to monitor production of clones from individual cells growing as non-adherent gliomaspheres. A minimum of 30 cells per well was required to allow sufficient sphere production (composed of at least 8 cells) in a time frame compatible with drug testing. Visual control of sphere formation on a daily basis confirmed that cellular edifices were arising from single cells and not due to cell clumping. […] To address whether this inhibitory effect is sufficient to impede tumor development in vivo we performed a xenograft experiment. […]
Cells were stained with an orange fluorescent dye (CMRA orange, Molecular Probe) to facilitate monitoring of individual cell and sphere counting. […] The sphere forming rate was calculated by dividing the number of sphere at day 4 per the real number of cells at day one in a given well.

[2] = tested on: PH3 positive cells in U118MG-Luc tumors; assay: PH3 immunostaining of U118MG-Luc xenograft tumor sections; format: in vivo, human cells in mouse; conditions: 5 sections per tumor, vs control; p = 0.0022, Mann Whitney
Protocol: as §1, §2

NRP1/PlexA1 complexes = assay: in situ proximity ligation assay (Duo-link), NRP1/PlexA1 complexes in U373MG cells; format: cell-based, human; conditions: U373MG cells, MTP-PlexA1 10^−7 M, vs vehicle
Protocol: “Zip sequence” is the positive control of dimerization and “Empty” is the negative control of this bacterial system. (C, D) SPR assay (Biacore) to quantify MTP-PlexA1 interactions with PLexA1, NRP1 and VEGFR2 TMDs. (E) Proximity ligation assay showing that MTP-PlexA1 (10^−7 M) decreases the number of PLexA1-NRP1 interactions (green dots) in U373MG cells (scale bar = 20 μm).
Additional specificity controls were performed using a mutated version of MTP-PlexA1 (in which 3 glycines of the GxxxGxxxG motif were replaced by 3 valines or MTP-Neu, an anti-breast cancer peptide known to not interact with PlexA1) as described in Supplementary Figure S2. […] Similar results were obtained when cells were exposed to VEGF (39.4% NRP1 and 35.4% PlexA4, Figure 4B).
Supplementary Figure S2: Specificity controls were performed using a mutated version of MTP-PlexA1 […]
LVIVAVLIAYKRK). Such mutations have been previously shown to be sufficient to lose activity of NRP1 antagonist membrane domain targeting peptide (Roth et al., 2008 Mol Biol Cell). We also used MTP-Neu, a transmembrane domain targeting peptide known to […]
M, a concentration previously shown to produce maximal antagonist activity of the peptide. Additionally, we also repeated the in vitro angiogenic assay on matrigel using HUVEC cells. […]
to MTP-PlexA1. These experiments confirmed the specificity of MTP-PlexA1.
(1 picture or pasted object on this page, not shown here)

[3] = subcutaneous U118MG-Luc, every day, 1 μg/kg, n = 10

Which “change of PlexA1-NRP1 interactions in tumor sections” value (PlexA1-NRP1 interactions) does the source give for “TLPAIVGIGGGGGLLLLVIVAVLIAYKRK [MTP-PlexA1, synthetic transmembrane peptide mimicking the TMD of PlexA1]” here?
Its value is −48.5%.

And the “mice not responding to treatment (waterfall best response)” value [1, 3]?
The value was 2 out of 10.

And the “mice with strong response, at least Partial Response (PR)” value [1, 3]?
Its value is 8 out of 10.

What about the “reduction of averaged luminescent signal at the end point” value ([1]; subcutaneous U118MG-Luc, i.p. every day, 1 μg/kg, 20 days) of the same sequence?
Its value is 75%.

What about the “best response, some animals” value ([1]; waterfall graph, percent change in tumor volume, individual animals) of the same sequence?
The value was ~100%.

And the “decrease of sphere forming ability” value (NCH644 cells; 4 days, 30 cells per well, p = 0.0015, Student T test)?
Its value is 33.3%.

And the “sphere formation relative to vehicle” value (NCH644 cells; vehicle = 100% +/− 9.7%)?
The value was 66.7% +/− 5.2.

And the “decrease of PH3 positive proliferative cells in tumors” value [2]?
The value was 37.3%.

And the “reduction of NRP1/PlexA1 complexes” value (NRP1/PlexA1 complexes)?
Its value is 29.4%.
